Source: US7109193B2, “Tricyclic diazepines tocolytic oxytocin receptor antagonists” (Wyeth, priority 2001, dated 2006)

Target: T1, human vasopressin V2 receptor subtype (Homo sapiens, UniProt P30518)
T1 construct: host or cells: CHO cells (pZeoSV vector)
Experiment: Vasopressin binding in Chinese Hamster Ovary cell membranes expressing human vasopressin V2 subtype receptors
Conditions: 100 nM, CHO cell membranes, [3H]arginine vasopressin, values without parentheses
Procedure, shortened: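 Radioligand displacement on membranes from CHO cells stably expressing human V2 receptor, 25 to 50 μg protein/well, in 50 mM Tris-HCl pH 7.4 with MgCl2, BSA and protease inhibitors. [^3H]arginine vasopressin (8 nM working solution) incubated 60 min at room temperature; bound label measured by filtration and scintillation counting.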

T1 sequence (P30518 whole entry): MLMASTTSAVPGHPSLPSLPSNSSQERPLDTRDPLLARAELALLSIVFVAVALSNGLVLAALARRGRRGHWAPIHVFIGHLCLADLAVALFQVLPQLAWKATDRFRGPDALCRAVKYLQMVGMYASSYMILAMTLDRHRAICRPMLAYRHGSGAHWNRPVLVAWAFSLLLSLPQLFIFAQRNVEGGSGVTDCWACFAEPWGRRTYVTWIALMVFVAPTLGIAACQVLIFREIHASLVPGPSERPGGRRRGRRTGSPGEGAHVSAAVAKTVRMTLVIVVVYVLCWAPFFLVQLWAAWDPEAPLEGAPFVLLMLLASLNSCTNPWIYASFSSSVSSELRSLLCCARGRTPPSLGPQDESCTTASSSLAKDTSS

Row | SMILES | V2 % inhibition @ 100 nM [%] | inhibition at 0.1 µM [%]
1 | COc1cc(C(=O)N2Cc3ccc(C(=O)N4CC[C@@H](N(C)C)C4)n3Cc3ccccc32)ccc1-n1c(C)ccc1C [Example 322, [(3R)-3-(Dimethylamino)pyrrolidinyl]{10-[4-(2,5-dimethyl-1H-pyrrol-1-yl)-3-methoxybenzoyl]-10,11-dihydro-5H-pyrrolo[2,1-c][1,4]benzodiazepin-3-yl}methanone] | 24 | 
2 | O=C(c1ccc2n1Cc1ccccc1N(C(=O)c1ccc(-c3cccc4ccccc34)cc1Cl)C2)N1CCC(N2CCCCC2)CC1 [Example 121] | 13 | 
3 | COc1cc(C(=O)N2Cc3ccc(C(=O)N4CC[C@@H](N(C)C)C4)n3Cc3ccccc32)ccc1-c1cccc2ccccc12 [Example 276, [(3R)-3-(Dimethylamino)pyrrolidinyl]{10-[3-methoxy-4-(1-naphthyl)benzoyl]-10,11-dihydro-5H-pyrrolo[2,1-c][1,4]benzodiazepin-3-yl}methanone] | −3 | 
4 | Cc1ccccc1-c1ccc(C(=O)N2Cc3ccc(C(=O)N4CCC[C@H]4CN4CCCC4)n3Cc3ccccc32)cc1C [Example 260, {10-[(2,2′-Dimethyl[1,1′-biphenyl]-4-yl)carbonyl]-10,11-dihydro-5H-pyrrolo[2,1-c][1,4]benzodiazepin-3-yl}[(2S)-2-(1-pyrrolidinylmethyl)pyrrolidinyl]methanone] | 20 | 
5 | Cc1ccccc1-c1ccc(C(=O)N2Cc3ccc(C(=O)N4CCC(N5CCCCC5)CC4)n3Cc3ccccc32)cc1C [Example 113, {10-[(2-Methyl-2′-methyl[1,1′-biphenyl]-4-yl)carbonyl]-10,11-dihydro-5H-pyrrolo[2,1-c][1,4]benzodiazepin-3-yl}[4-(1-piperidinyl)-1-piperidinyl]methanone] |  | 9
6 | COc1ccccc1-c1ccc(C(=O)N2Cc3ccc(C(=O)N4CCC[C@H]4CN4CCCC4)n3Cc3ccccc32)cc1C [Example 259, {10-[(2′-Methoxy-2-methyl[1,1′-biphenyl]-4-yl)carbonyl]-10,11-dihydro-5H-pyrrolo[2,1-c][1,4]benzodiazepin-3-yl}[(2S)-2-(1-pyrrolidinylmethyl)pyrrolidinyl]methanone] | −3 | 
7 | COc1ccccc1-c1ccc(C(=O)N2Cc3ccc(C(=O)N4CCC[C@H]4CN4CCCC4)n3Cc3ccccc32)cc1 [Example 265, {10-[(2′-Methoxy[1,1′-biphenyl]-4-yl)carbonyl]-10,11-dihydro-5H-pyrrolo[2,1-c][1,4]benzodiazepin-3-yl}[(2S)-2-(1-pyrrolidinylmethyl)pyrrolidinyl]methanone] | 10 | 
8 | COc1cc(C(=O)N2Cc3ccc(C(=O)N4CCC[C@H]4CN4CCCC4)n3Cc3ccccc32)ccc1-c1cccc2ccccc12 [Example 262, {10-[3-Methoxy-4-(1-naphthyl)benzoyl]-10,11-dihydro-5H-pyrrolo[2,1-c][1,4]benzodiazepin-3-yl}[(2S)-2-(1-pyrrolidinylmethyl)pyrrolidinyl]methanone] | 4 | 
9 | COc1cccc(-c2cc(OC)c(C(=O)N3Cc4ccc(C(=O)N5CCC[C@H]5CN5CCCC5)n4Cc4ccccc43)cc2Cl)c1 [Example 268, {10-[(6-Chloro-3,3′-dimethoxy[1,1′-biphenyl]-4-yl)carbonyl]-10,11-dihydro-5H-pyrrolo[2,1-c][1,4]benzodiazepin-3-yl}[(2S)-2-(1-pyrrolidinylmethyl)pyrrolidinyl]methanone] | 34 | 
10 | COc1ccccc1-c1ccc(C(=O)N2Cc3ccc(C(=O)N4CCC(N5CCCC5)CC4)n3Cc3ccccc32)cc1C [Example 137, {10-[(2′-Methoxy-2-methyl[1,1′-biphenyl]-4-yl)carbonyl]-10,11-dihydro-5H-pyrrolo[2,1-c][1,4]benzodiazepin-3-yl}[4-(1-pyrrolidinyl)-1-piperidinyl]methanone] |  | -4
11 | COc1ccccc1-c1ccc(C(=O)N2Cc3ccc(C(=O)NCCN4CCCCC4)n3Cc3ccccc32)cc1 [Example 152, 10-[(2′-Methoxy[1,1′-biphenyl]-4-yl)carbonyl]-N-[2-(1-piperidinyl)ethyl]-10,11-dihydro-5H-pyrrolo[2,1-c][1,4]benzodiazepine-3-carboxamide] |  | 10
12 | COc1cc(C(=O)N2Cc3ccc(C(=O)N4CCC[C@H]4CN4CCCC4)n3Cc3ccccc32)ccc1-n1c(C)ccc1C [Example 321, {10-[4-(2,5-Dimethyl-1H-pyrrol-1-yl)-3-methoxybenzoyl]-10,11-dihydro-5H-pyrrolo[2,1-c][1,4]benzodiazepin-3-yl}[(2S)-2-(1-pyrrolidinylmethyl)pyrrolidinyl]methanone] | 23 | 
13 | Cc1cc(C(=O)N2Cc3ccc(C(=O)N(CCCN(C)C)CCCN(C)C)n3Cc3ccccc32)ccc1-c1ccccc1C(F)(F)F [Example 3, 10-[(2-Methyl-2′-trifluoromethyl-[1,1′-biphenyl]-4-yl)-carbonyl]-10,11-dihydro-5H-pyrrolo[2,1-c][1,4]benzodiazepine-3-carboxylic acid bis-(3-dimethylamino-propyl)-amide] |  | 22
14 | Cc1ccccc1-c1ccc(C(=O)N2Cc3ccc(C(=O)N4CCC(N5CCCCC5)CC4)n3Cc3ccccc32)cc1 [Example 115, {10-[(2′-Methyl[1,1′-biphenyl]-4-yl)carbonyl]-10,11-dihydro-5H-pyrrolo[2,1-c][1,4]benzodiazepin-3-yl}[4-(1-piperidinyl)-1-piperidinyl]methanone] |  | 12
15 | COc1cc(C(=O)N2Cc3ccc(C(=O)N4CCC(N5CCCCC5)CC4)n3Cc3ccccc32)ccc1-c1cccc2ccccc12 [Example 118, {10-[3-Methoxy-4-(1-naphthyl)-benzoyl]-10,11-dihydro-5H-pyrrolo[2,1-c][1,4]benzodiazepin-3-yl}[4-(1-piperidinyl)-1-piperidinyl]methanone] |  | 39
16 | COc1cccc(-c2ccc(C(=O)N3Cc4ccc(C(=O)N5CC[C@@H](N(C)C)C5)n4Cc4ccccc43)cc2OC)c1 [Example 283, {10-[(2,3′-Dimethoxy[1,1′-biphenyl]-4-yl)carbonyl]-10,11-dihydro-5H-pyrrolo[2,1-c][1,4]benzodiazepin-3-yl}[(3R)-3-(dimethylamino)pyrrolidinyl]methanone] | 29 | 
17 | COc1cc(C(=O)N2Cc3ccc(C(=O)N4CCC(N5CCCC5)CC4)n3Cc3ccccc32)ccc1-c1ccccc1C [Example 142, {10-[(2-Methoxy-2′-methyl[1,1′-biphenyl]-4-yl)carbonyl]-10,11-dihydro-5H-pyrrolo[2,1-c][1,4]benzodiazepin-3-yl}[4-(1-pyrrolidinyl)-1-piperidinyl]methanone] |  | -5
18 | Cc1cc(C(=O)N2Cc3ccc(C(=O)N4CCC(N5CCCC5)CC4)n3Cc3ccccc32)ccc1-c1ccccc1C(F)(F)F [Example 148, (10-{[2-Methyl-2′-(trifluoromethyl)[1,1′-biphenyl]-4-yl]carbonyl}-10,11-dihydro-5H-pyrrolo[2,1-c][1,4]benzodiazepin-3-yl)[4-(1-pyrrolidinyl)-1-piperidinyl]methanone] |  | 1
19 | COc1cc(C(=O)N2Cc3ccc(C(=O)NCCCn4ccnc4)n3Cc3ccccc32)ccc1-c1cccc2ccccc12 [Example 131, N-[3-(1H-Imidazol-1-yl)propyl]-10-[3-methoxy-4-(1-naphthyl)benzoyl]-10,11-dihydro-5H-pyrrolo[2,1-c][1,4]benzodiazepine-3-carboxamide] |  | 13
20 | Cc1ccccc1-c1ccc(C(=O)N2Cc3ccc(C(=O)N4CCC[C@H]4CN4CCCC4)n3Cc3ccccc32)cc1 [Example 264, {10-[(2′-Methyl[1,1′-biphenyl]-4-yl)carbonyl]-10,11-dihydro-5H-pyrrolo[2,1-c][1,4]benzodiazepin-3-yl}[(2S)-2-(1-pyrrolidinylmethyl)pyrrolidinyl]methanone] | 12 | 
21 | Cc1ccccc1-c1ccc(C(=O)N2Cc3ccc(C(=O)NCCCn4ccnc4)n3Cc3ccccc32)cc1C [Example 124, 10-[(2,2′-Dimethyl[1,1′-biphenyl]-4-yl)carbonyl]-N-[3-(1H-imidazol-1-yl)propyl]-10,11-dihydro-5H-pyrrolo[2,1-c][1,4]benzodiazepine-3-carboxamide] |  | 21
22 | COc1cccc(-c2ccc(C(=O)N3Cc4ccc(C(=O)NCCN5CCCCC5)n4Cc4ccccc43)cc2C)c1 [Example 151, 10-[(3′-Methoxy-2-methyl[1,1′-biphenyl]-4-yl)carbonyl]-N-[2-(1-piperidinyl)ethyl]-10,11-dihydro-5H-pyrrolo[2,1-c][1,4]benzodiazepine-3-carboxamide] |  | 6
23 | Cc1ccccc1-c1ccc(C(=O)N2Cc3ccc(C(=O)NCCCn4ccnc4)n3Cc3ccccc32)cc1 [Example 127, N-[3-(1H-Imidazol-1-yl)propyl]-10-[(2′-methyl[1,1′-biphenyl]-4-yl)carbonyl]-10,11-dihydro-5H-pyrrolo[2,1-c][1,4]benzodiazepine-3-carboxamide] |  | 3
24 | COc1cc(C(=O)N2Cc3ccc(C(=O)NCCCn4ccnc4)n3Cc3ccccc32)ccc1-c1ccccc1C [Example 128, N-[3-(1H-Imidazol-1-yl)propyl]-10-[(2-methoxy-2′-methyl[1,1′-biphenyl]-4-yl)carbonyl]-10,11-dihydro-5H-pyrrolo[2,1-c][1,4]benzodiazepine-3-carboxamide] |  | 17
